Data published in patent US8188102B2, “Amide derivative for inhibiting the growth of cancer cells” (Hanmi Holdings Co., Ltd., priority 2007, dated 2012).

Experiments:
[1] = tested on: SK-Br3 breast cancer cell line; experiment: Cancer cell growth inhibition, SK-Br3 (SRB); conditions: Homo sapiens, SK-BR-3, 72 h, read-out: ID50 (nM) SK-Br3
[2] = tested on: A431 skin cancer cell line; experiment: Cancer cell growth inhibition, A431 (SRB); conditions: Homo sapiens, A-431, 72 h, read-out: ID50 (nM) A431

SMILES | IC50 [1] [nM] | IC50 [2] [nM]
C=CC(=O)N1CCC(Oc2cc3c(Nc4cccc(C(F)(F)F)c4F)ncnc3cc2OC)CC1 [Example 65, 1-(4-(4-(2-fluoro-3-(trifluoromethyl)phenylamino)-7-methoxyquinazolin-6-yloxy)piperidin-1-yl)pro-2-pen-1-one] | 15 | 11
C=CC(=O)N1CCC(Oc2cc3c(Nc4ccc(F)c(Cl)c4F)ncnc3cc2OCCCN2CCOCC2)CC1 [Example 118, 1-(4-(4-(3-chloro-2,4-difluorophenylamino)-7-(3-morpholinopropoxy)quinazolin-6-yloxy)piperidin-1-yl)prop-2-en-1-one] | 2 | 4
COc1cc2ncnc(Nc3ccc(Cl)c(Cl)c3F)c2cc1OC1CCN(C(=O)/C=C\Cl)CC1 [Example 89, (Z)-3-chloro-1-(4-(4-(3,4-dichloro-2-fluorophenylamino)-7-methoxyquinazolin-6-yloxy)piperidin-1-yl)prop-2-en-1-one] | 85 | 14
C=CC(=O)N1CC[C@H](Oc2cc3c(Nc4ccc(F)c(Cl)c4F)ncnc3cc2OC)C[C@H]1C(=O)NCC [Example 122, (2S,4S)-1-acryloyl-4-(4-(3-chloro-2,4-difluorophenylamino)-7-methoxyquinazolin-6-yloxy)-N-ethylpiperidin-2-carboxamide] | 2.3 | 8
C=CC(=O)N1CCC(Oc2cc3c(Nc4cc(OC)c(Cl)cc4OC)ncnc3cc2OC)CC1 [Example 38, 1-(4-(4-(4-chloro-2,5-dimethoxyphenylamino)-7-methoxyquinazolin-6-yloxy)piperidin-1-yl)pro-2-pen-1-one] | > 10000 | > 10000
C=CC(=O)N1CC[C@H](Oc2cc3c(Nc4ccc5c(cnn5Cc5cccc(F)c5)c4)ncnc3cc2OC)C1 [Example 12, 1-((3S)-3-(4-(1-(3-fluorobenzyl)-1H-indazol-5-ylamino)-7-methoxyquinazolin-6-yloxy)pyrrolidin-1-yl)pro-2-pen-1-one] | 3 | 19
COC(=O)/C=C\C(=O)N1CCC(Oc2cc3c(Nc4ccc(Cl)c(Cl)c4F)ncnc3cc2OC)CC1 [Example 84, (Z)-methyl 4-(4-(4-(3,4-dichloro-2-fluorophenylamino)-7-methoxyquinazolin-6-yloxy)piperidin-1-yl)-4-oxobut-2-enoate] | 21 | 8
C=CC(=O)N1CCC(Oc2cc3c(Nc4ccc5c(c4)CCC5)ncnc3cc2OC)CC1 [Example 49, 1-(4-(4-(2,3-dihydro-1H-inden-5-ylamino)-7-methoxyquinazolin-6-yloxy)piperidin-1-yl)pro-2-pen-1-one] | 45 | 29
C=CC(=O)N1CCC(Oc2cc3c(Nc4cccc([N+](=O)[O-])c4)ncnc3cc2OC)CC1 [Example 74, 1-(4-(7-methoxy-4-(3-nitrophenylamino)quinazolin-6-yloxy)piperidin-1-yl)pro-2-pen-1-one] | 1 | 11
C=CC(=O)N1CC[C@H](Oc2cc3c(Nc4ccc(F)c(Cl)c4F)ncnc3cc2OC)C[C@H]1C(=O)NO [Example 125, (2S,4S)-1-acryloyl-4-(4-(3-chloro-2,4-difluorophenylamino)-7-methoxyquinazolin-6-yloxy)-N-hydroxypiperidin-2-carboxamide] | 1 | 10
C=CC(=O)N1CC[C@H](Oc2cc3c(Nc4ccc(F)c(Cl)c4F)ncnc3cc2OC)C[C@H]1C(=O)NCCN1CCOCC1 [Example 132, (2S,4S)-1-acryloyl-4-(4-(3-chloro-2,4-difluorophenylamino)-7-methoxyquinazolin-6-yloxy)-N-(2-morpholinoethyl)piperidin-2-carboxamide] | 0.5 | 8.3
C=CC(=O)N1CC[C@H](Oc2cc3c(Nc4ccc(F)c(Cl)c4F)ncnc3cc2OC)C[C@H]1C(=O)NCCCO [Example 131, (2S,4S)-1-acryloyl-4-(4-(3-chloro-2,4-difluorophenylamino)-7-methoxyquinazolin-6-yloxy)-N-(3-hydroxypropyl)piperidin-2-carboxamide] | 0.5 | 20

Results, then the compound that gave them:

IC50 [1] [nM] | IC50 [2] [nM] | SMILES
4 | 979 | C=CC(=O)N1CC[C@@H](Oc2cc3c(Nc4ccc(F)c(Cl)c4F)ncnc3cc2OC)C[C@@H]1C(=O)O [Example 134, (2R,4R)-1-acryloyl-4-(4-(3-chloro-2,4-difluorophenylamino)-7-methoxyquinazolin-6-yloxy)piperidin-2-carboxylic acid]
19 | 6 | C=CC(=O)N1CCCC(Oc2cc3c(Nc4ccc(F)c(Cl)c4F)ncnc3cc2OC)C1 (centres unmarked) [Example 18, 1-(3-(4-(3-chloro-2,4-difluorophenylamino)-7-methoxyquinazolin-6-yloxy)piperidin-1-yl)pro-2-pen-1-one]
> 1000 | 187 | COc1cc2ncnc(Nc3ccc(F)c(Cl)c3F)c2cc1OC1CCN(C(=O)/C=C/C(=O)NO)CC1 [Example 88, (E)-4-(4-(4-(3-chloro-2,4-difluorophenylamino)-7-methoxyquinazolin-6-yloxy)piperidin-1-yl)-N-hydroxy-4-oxobut-2-enamide]
6 | 5 | C=CC(=O)N1CC[C@H](Oc2cc3c(Nc4ccc(F)c(Cl)c4F)ncnc3cc2OC)C[C@H]1C(=O)OC [Example 119, (2S,4S)-methyl 1-acryloyl-4-(4-(3-chloro-2,4-difluorophenylamino)-7-methoxyquinazolin-6-yloxy)piperidin-2-carboxylate]
0.6 | 1 | COC(=O)/C=C\C(=O)N1CC(Oc2cc3c(Nc4cccc(Cl)c4F)ncnc3cc2OC)C1 [Example 30, (Z)-methyl 4-(3-(4-(3-chloro-2-fluorophenylamino)-7-methoxyquinazolin-6-yloxy)azetidin-1-yl)-4-oxobut-2-enoate]
7 | 18 | COc1cc2ncnc(Nc3ccc(F)c(Cl)c3F)c2cc1OCCNC(=O)/C=C/CN(C)C [Example 103, (E)-N-(2-(4-(3-chloro-2,4-difluorophenylamino)-7-methoxyquinazolin-6-yloxy)ethyl)-4-(dimethylamino)but-2-enamide]
1.3 | 2.4 | C=CC(=O)N1CC[C@@H](Oc2cc3c(Nc4ccc(F)c(Cl)c4F)ncnc3cc2OC)C[C@@H]1C(=O)NCCS(C)(=O)=O [Example 138, (2R,4R)-1-acryloyl-4-(4-(3-chloro-2,4-difluorophenylamino)-7-methoxyquinazolin-6-yloxy)-N-(2-(methylsulfonyl)ethyl)piperidin-2-carboxamide]
3 | 43 | C=CC(=O)N1CCC(Oc2cc3c(Nc4ccc(F)c(F)c4F)ncnc3cc2OC)CC1 [Example 45, 1-(4-(7-methoxy-4-(2,3,4-trifluorophenylamino)quinazolin-6-yloxy)piperidin-1-yl)pro-2-pen-1-one]
91 | 179 | C=CC(=O)N1CCC(Oc2cc3c(Nc4cc(Cl)c(O)c(Cl)c4)ncnc3cc2OC)CC1 [Example 50, 1-(4-(4-(3,5-dichloro-4-hydroxyphenylamino)-7-methoxyquinazolin-6-yloxy)piperidin-1-yl)pro-2-pen-1-one]
21 | 32 | C=CC(=O)N1CCC(Oc2cc3c(Nc4ccc(Cl)cc4O)ncnc3cc2OC)CC1 [Example 53, 1-(4-(4-(4-chloro-2-hydroxyphenylamino)-7-methoxyquinazolin-6-yloxy)piperidin-1-yl)pro-2-pen-1-one]
